The values below come from ChEMBL document CHEMBL1201862, “PubChem BioAssay data set” (2004).

The source made the active and inactive calls.

The IC50 is the midpoint of a concentration-inhibition curve. In general, AC50 refers to the concentration at which the activity in the assay is half-maximal.

One assay has as its target Mucolipin-3 (Homo sapiens, UniProt Q8TDD5). As to the kind of experiment: Dose response cell-based high-throughput screening assay for agonists of the transient receptor potential channel ML3 (TRPML3). [Related pubchem assays: 1526, 1424, 1448 ]. The format is functional.
The target of another assay is Ion channel NompC (Danio rerio, UniProt Q7T1G6). As to the kind of experiment: Fluorescence counterscreen assay for TRPML3 agonists: dose response cell-based high-throughput screening assay to identify agonists of the transient receptor potential channel N1 (TRPN1). [Related pubchem assays: 1526, 1424, 1448 ]. The format is functional. (In general: The purpose of a counterscreen is to sort out artefacts and off-target activity.)
Ion channel NompC, sequence (Q7T1G6 whole entry): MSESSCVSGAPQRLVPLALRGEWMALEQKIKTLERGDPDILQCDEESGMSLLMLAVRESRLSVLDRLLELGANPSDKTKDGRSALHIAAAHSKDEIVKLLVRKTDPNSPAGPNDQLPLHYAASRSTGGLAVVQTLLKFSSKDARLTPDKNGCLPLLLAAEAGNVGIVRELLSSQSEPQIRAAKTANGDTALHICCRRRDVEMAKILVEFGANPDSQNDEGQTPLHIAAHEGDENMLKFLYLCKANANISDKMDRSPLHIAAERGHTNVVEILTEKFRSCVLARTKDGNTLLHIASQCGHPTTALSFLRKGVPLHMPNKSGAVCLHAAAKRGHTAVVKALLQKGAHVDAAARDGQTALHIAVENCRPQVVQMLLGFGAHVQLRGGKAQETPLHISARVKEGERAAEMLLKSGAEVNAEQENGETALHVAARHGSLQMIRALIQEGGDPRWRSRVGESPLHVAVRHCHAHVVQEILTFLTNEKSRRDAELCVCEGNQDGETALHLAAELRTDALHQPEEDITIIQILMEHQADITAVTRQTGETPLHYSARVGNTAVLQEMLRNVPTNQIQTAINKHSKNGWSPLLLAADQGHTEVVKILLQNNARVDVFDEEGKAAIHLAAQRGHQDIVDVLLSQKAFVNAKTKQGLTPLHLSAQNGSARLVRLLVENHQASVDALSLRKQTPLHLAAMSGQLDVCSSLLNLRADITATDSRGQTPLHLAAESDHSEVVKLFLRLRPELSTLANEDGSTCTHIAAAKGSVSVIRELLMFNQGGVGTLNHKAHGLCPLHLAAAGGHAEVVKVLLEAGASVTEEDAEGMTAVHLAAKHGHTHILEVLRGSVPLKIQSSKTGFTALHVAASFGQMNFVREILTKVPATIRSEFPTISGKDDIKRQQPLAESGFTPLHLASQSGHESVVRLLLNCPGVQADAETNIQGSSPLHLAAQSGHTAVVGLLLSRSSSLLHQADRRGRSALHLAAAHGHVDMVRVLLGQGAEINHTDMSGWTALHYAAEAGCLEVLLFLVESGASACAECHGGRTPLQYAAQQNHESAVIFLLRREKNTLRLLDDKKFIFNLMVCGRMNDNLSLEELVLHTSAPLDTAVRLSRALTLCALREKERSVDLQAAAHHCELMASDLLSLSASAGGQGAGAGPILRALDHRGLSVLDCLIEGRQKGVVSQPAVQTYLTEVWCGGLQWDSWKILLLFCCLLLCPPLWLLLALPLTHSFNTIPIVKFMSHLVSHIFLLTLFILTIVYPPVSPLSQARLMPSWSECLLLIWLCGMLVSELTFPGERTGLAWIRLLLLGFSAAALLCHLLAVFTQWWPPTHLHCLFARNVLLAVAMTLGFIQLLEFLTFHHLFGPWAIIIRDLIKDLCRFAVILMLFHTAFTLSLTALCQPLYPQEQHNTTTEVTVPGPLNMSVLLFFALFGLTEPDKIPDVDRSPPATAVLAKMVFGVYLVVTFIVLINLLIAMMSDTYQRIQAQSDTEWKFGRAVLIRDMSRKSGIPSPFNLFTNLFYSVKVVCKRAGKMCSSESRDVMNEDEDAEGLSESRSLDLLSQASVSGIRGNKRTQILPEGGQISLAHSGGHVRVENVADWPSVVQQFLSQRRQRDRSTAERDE

Assay [1] is described as follows: inhibitors of Bluetongue virus cytopathic effect, confirmation, arbovirus, BSR cells (AID 1250).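 Note: protection from viral cytopathic effect measured as cell viability by ATP luminescence.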 The format is functional. (Protection from cytopathic effect is a common read-out in antiviral testing.)
The target in assay [2] is T1, Serine/threonine-protein phosphatase (Homo sapiens, UniProt Q9BPW0).
T1 sequence (Q9BPW0 whole entry): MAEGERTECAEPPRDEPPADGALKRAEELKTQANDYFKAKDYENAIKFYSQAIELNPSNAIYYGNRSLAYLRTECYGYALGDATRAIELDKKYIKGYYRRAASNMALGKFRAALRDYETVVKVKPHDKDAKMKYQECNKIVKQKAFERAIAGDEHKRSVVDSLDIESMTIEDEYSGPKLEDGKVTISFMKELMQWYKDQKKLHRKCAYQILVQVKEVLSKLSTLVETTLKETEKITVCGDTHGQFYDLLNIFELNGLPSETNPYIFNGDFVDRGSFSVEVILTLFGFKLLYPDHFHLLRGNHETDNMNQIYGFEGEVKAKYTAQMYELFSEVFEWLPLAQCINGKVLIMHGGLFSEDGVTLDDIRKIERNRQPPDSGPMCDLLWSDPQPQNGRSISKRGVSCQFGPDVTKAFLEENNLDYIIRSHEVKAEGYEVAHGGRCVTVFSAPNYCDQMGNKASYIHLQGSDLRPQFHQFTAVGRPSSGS
As to the kind of experiment: PP5 phosphatase inhibitors, dose response, biochemical, fluorescence (AID 2395).

The target in assay [3] is Serine/threonine-protein phosphatase PP1-alpha catalytic subunit (Homo sapiens, UniProt P62136). The assay is described as follows: PP1 phosphatase inhibitors, dose response, biochemical, fluorescence (AID 2394).
Serine/threonine-protein phosphatase PP1-alpha catalytic subunit, sequence (P62136 whole entry): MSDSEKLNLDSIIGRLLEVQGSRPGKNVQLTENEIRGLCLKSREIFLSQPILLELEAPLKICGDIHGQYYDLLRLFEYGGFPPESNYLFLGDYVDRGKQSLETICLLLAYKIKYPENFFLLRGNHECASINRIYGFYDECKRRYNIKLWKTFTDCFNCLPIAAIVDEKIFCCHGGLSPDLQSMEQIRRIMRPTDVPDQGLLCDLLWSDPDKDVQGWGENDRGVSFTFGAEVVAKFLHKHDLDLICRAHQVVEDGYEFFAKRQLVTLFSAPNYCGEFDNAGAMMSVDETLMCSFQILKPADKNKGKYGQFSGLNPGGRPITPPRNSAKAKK
Assay [4] can be described thus: Luminescence Cell-Based Dose Confirmation HTS to Identify Inhibitors of Polyadenylation. The format is functional.
Assay [5] addresses T2, Aryl hydrocarbon receptor (Homo sapiens, UniProt P35869).
T2 sequence (P35869 whole entry): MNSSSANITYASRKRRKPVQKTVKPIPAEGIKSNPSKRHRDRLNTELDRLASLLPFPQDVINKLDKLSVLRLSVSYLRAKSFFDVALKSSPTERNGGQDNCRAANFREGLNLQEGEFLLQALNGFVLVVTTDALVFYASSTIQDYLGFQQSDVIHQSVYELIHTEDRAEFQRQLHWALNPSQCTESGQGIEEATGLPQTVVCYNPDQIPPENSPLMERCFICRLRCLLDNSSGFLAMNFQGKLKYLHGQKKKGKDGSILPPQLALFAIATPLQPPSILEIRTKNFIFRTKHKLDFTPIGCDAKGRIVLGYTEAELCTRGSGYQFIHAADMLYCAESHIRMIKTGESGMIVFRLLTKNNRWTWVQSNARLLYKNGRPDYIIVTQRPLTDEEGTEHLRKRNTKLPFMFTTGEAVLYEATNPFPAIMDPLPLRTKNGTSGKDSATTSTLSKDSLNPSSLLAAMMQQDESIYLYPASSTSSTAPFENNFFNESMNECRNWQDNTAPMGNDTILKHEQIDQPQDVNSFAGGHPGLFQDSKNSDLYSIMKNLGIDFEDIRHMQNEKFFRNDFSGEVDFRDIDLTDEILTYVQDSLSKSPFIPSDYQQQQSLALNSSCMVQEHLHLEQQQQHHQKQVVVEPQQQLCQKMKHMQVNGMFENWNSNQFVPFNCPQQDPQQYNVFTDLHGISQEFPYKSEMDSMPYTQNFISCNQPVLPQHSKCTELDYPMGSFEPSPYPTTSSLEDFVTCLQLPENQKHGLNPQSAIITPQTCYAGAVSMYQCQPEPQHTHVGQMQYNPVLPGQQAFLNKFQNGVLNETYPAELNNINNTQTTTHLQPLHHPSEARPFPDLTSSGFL
The assay is described as follows: Luminescence-based cell-based high throughput dose response assay for activators of the Aryl Hydrocarbon Receptor (AHR). [Related pubchem assays: 2796 (Primary screen (AHR activators in singlicate)), 2845 (Confirmation screen (AHR activators in triplicate)), 434939 (Counterscreen (PXR activators in triplicate)), 2804 (Summary (AHR activators))]. The format is ADME.

Assay [6] deals with FAD-linked sulfhydryl oxidase ALR (Homo sapiens, UniProt P55789). The assay is described as follows: inhibitors of human ALR sulfhydryl oxidase, dose response, biochemical, H2O2 detection, luminescence, cherry-pick (AID 493248).
FAD-linked sulfhydryl oxidase ALR, sequence (P55789 whole entry): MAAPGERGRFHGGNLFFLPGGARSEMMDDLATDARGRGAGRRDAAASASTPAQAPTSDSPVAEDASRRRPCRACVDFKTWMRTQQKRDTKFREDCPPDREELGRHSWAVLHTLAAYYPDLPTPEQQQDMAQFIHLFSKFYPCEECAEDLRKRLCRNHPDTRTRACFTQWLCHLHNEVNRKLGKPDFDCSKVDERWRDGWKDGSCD
Assay [7] addresses T3, Ubiquitin-conjugating enzyme E2 N (Homo sapiens, UniProt P61088).
T3 sequence (P61088 whole entry): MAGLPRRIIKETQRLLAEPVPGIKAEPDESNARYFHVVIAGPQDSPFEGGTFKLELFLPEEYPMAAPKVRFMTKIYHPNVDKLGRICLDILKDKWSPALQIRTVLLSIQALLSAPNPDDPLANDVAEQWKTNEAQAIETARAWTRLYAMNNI
In kind it is functional.

A further assay deals with T4, Bcl-2-related protein A1 (Mus musculus, UniProt Q07440).
T4 sequence (Q07440 whole entry): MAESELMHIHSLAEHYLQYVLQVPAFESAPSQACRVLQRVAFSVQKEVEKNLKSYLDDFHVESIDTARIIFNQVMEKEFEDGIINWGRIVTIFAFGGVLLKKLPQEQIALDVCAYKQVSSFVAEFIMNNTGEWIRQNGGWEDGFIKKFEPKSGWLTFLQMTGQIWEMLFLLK
The format is functional.

The target of another assay is T5, Aminopeptidase N (Plasmodium falciparum FcB1/Columbia, UniProt O96935).
T5 sequence (O96935 whole entry): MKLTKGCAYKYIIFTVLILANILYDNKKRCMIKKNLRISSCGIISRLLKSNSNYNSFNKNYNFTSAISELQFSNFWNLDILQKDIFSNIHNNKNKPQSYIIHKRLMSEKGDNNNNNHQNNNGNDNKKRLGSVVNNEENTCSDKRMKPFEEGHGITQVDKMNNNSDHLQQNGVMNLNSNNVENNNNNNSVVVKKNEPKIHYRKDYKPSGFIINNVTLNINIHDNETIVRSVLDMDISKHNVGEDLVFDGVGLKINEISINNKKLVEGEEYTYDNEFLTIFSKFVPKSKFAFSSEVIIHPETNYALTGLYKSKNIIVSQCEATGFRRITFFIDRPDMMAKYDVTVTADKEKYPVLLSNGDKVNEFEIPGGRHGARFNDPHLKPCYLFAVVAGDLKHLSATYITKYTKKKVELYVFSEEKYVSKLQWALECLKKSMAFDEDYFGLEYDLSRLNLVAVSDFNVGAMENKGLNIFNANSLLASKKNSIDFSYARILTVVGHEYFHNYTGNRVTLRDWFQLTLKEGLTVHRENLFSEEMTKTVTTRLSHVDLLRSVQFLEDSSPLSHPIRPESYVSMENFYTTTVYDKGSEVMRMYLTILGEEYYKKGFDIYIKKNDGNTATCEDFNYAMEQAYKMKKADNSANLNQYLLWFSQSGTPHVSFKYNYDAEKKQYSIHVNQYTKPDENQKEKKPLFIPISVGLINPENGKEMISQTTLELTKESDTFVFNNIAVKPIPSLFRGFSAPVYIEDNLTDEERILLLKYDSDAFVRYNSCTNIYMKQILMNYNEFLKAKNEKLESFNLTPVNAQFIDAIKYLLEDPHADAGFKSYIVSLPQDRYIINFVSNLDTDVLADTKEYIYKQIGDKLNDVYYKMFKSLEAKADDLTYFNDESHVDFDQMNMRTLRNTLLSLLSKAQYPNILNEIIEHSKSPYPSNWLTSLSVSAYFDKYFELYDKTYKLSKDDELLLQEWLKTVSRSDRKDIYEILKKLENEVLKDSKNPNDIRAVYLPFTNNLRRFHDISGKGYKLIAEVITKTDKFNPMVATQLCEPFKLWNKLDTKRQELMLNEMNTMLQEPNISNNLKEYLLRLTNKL
As to the kind of experiment: P. falciparum M1AAP inhibitors, biochemical, fluorogenic H-Leu-NHMec substrate, 1536-well (AID 1445). The arrangement: species or system Plasmodium falciparum 3D7, 3D7.

The target in a further assay is T6, Aspartyl aminopeptidase (Plasmodium falciparum 3D7, UniProt Q8I2J3).
T6 sequence (Q8I2J3 whole entry): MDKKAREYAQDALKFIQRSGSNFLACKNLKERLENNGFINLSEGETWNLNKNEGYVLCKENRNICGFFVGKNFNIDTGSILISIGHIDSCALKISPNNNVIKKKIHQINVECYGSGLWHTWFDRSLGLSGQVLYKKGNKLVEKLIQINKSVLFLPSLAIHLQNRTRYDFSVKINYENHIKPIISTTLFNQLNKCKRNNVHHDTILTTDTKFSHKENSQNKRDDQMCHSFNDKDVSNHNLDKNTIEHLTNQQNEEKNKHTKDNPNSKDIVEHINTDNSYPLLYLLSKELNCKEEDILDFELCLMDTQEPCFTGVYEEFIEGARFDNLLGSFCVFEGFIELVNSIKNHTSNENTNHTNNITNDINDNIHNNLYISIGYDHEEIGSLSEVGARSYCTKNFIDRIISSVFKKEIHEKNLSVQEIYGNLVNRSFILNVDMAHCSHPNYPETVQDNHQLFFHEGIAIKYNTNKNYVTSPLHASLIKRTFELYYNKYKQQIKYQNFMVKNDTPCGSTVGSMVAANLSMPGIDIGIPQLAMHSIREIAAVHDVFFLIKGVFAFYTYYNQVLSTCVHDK
The assay is described as follows: Counterscreen for inhibitors of M1 and M17 aminopeptidases: QFRET-based biochemical high throughput dose response assay for inhibitors of the Plasmodium falciparum M18 Aspartyl Aminopeptidase (PFM18AAP). [Related PubChem assays: 1619 (Screening assay (M17LAP inhibitors).), 1445 (Screening assay (M1AAP inhibitors).)].

A further assay concerns the target Procathepsin L (Homo sapiens, UniProt P07711). The assay is described as follows: cathepsin L inhibitors, dose response, counter-screen for M1/M17 aminopeptidase inhibitor project, biochemical, QFRET, 1536-well (AID 2214).
Assay [8] addresses T3, Ubiquitin-conjugating enzyme E2 N. In kind it is functional. The source holds these as a separate data set.
Assay [9] has as its target T7, Corticotropin-releasing factor receptor 2/Corticotropin-releasing factor-binding protein (Homo sapiens, UniProt P24387+Q13324).
T7 sequence (Q13324 whole entry): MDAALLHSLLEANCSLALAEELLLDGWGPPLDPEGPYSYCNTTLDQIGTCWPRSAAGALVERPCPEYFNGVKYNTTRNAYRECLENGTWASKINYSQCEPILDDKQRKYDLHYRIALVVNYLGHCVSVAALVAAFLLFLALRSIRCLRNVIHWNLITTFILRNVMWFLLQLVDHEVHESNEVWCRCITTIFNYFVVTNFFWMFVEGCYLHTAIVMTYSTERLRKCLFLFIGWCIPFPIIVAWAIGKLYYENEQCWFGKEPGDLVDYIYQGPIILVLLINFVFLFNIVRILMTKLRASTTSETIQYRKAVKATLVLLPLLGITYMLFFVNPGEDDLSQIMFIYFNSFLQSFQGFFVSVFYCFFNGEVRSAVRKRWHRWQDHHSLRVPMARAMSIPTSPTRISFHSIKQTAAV
T7 sequence (P24387 whole entry): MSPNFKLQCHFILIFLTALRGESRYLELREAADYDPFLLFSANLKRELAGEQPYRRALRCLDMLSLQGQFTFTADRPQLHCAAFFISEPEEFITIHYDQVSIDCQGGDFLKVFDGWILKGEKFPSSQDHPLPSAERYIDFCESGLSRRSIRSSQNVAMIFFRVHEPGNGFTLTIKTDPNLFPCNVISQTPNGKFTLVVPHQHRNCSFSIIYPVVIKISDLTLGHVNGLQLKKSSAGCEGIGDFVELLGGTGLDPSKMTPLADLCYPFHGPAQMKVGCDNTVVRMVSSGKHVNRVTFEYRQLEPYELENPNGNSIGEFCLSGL
As to the kind of experiment: activators of CRF receptor 2 with binding protein – uHTS hits, confirmation (AID 602473). The format is functional. To be noted: read-out: EC50_Mean.

Mucolipin-3, sequence (Q8TDD5 whole entry): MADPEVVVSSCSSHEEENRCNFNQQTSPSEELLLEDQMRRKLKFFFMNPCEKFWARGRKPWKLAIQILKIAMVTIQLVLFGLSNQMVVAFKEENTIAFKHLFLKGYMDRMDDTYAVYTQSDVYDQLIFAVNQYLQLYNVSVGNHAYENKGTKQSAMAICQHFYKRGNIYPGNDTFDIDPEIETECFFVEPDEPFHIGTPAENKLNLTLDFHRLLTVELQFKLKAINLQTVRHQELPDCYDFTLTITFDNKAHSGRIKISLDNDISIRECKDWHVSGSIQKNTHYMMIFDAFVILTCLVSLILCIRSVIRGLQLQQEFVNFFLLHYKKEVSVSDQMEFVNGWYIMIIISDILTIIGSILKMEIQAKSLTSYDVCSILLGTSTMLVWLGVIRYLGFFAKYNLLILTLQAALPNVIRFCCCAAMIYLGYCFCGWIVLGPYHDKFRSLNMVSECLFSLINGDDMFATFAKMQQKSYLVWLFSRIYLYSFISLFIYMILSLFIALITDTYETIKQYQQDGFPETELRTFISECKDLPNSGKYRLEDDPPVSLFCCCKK
Procathepsin L, sequence (P07711 whole entry): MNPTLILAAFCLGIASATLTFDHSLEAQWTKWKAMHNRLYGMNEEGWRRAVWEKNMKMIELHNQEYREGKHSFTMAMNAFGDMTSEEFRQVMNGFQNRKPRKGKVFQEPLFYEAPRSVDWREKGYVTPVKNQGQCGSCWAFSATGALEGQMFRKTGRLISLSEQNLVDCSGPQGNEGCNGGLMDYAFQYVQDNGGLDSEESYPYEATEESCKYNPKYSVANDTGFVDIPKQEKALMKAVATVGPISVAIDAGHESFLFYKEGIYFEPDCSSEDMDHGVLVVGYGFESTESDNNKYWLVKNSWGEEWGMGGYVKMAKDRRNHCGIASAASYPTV

Consider `COc1ccc(N2C(=O)C(F)(F)C2c2ccccc2F)cc1` (stereo not drawn), for which the EC50 at Mucolipin-3 was 3.96 µM (active); at Ion channel NompC, > 29.9 µM (not active).
Regarding `Cc1cccc(C)c1Nc1nc2ccccc2o1`, in assay [1], the IC50 was 26.7 µM (active).
As for `CCCCC1=NN2C(=N)/C(=C/c3c[nH]c4ccccc34)C(=O)N=C2S1`, the IC50 in [1] was 61.7 µM (active).
With `COC(=O)CCC(=O)OC1(C)C(=O)C2=CN(CC(C)C)C(c3ccc(OC)cc3)=CC2=C(Br)C1=O` (stereo not drawn), the IC50 was 37.5 µM (not active) in [2] and 28.3 µM (not active) in [3].
In the case of `Cc1cc(Cl)ccc1C(=O)C1CCCN(C(=O)c2snnc2C)C1` (stereo not drawn), the EC50 in assay [4] is on record as > 120 µM (not active).
For `COc1ccccc1C(=O)Nc1ccc(N2CCCCC2)cc1`, the EC50 in assay [5] was 2.91 µM (active). For the same compound, the AC50 in assay [6] was 13.4 µM (active).
As for `CC(=O)N1NC(=C2C(=O)N(C)C(=O)N(C)C2=O)CC1c1ccccc1` (stereo not drawn), the IC50 was 12.5 µM (active) in assay [7]; > 20 µM (inactive) on Bcl-2-related protein A1; 16 µM (active) at Aminopeptidase N; > 73.5 µM (not active) at Aspartyl aminopeptidase; > 59.6 µM (not active) against Procathepsin L; 19.5 µM (active) in assay [8].
As to `COc1ccccc1N(CC(=O)N1CCCCC1)S(=O)(=O)c1ccccc1`, the figures for the EC50 (at Mucolipin-3; in assay [9]; on Ion channel NompC) were 0.59 µM (active), 8.61 µM (active) and 12.4 µM (not active), respectively.
